Test results taken from patent publication US11013723B1, “Solid forms of a thiazolidinone compound, compositions and methods of use thereof” (Celgene Corporation, priority 2018, dated 2021).
Peptide text beside a SMILES is read from it.

Assay: Slurry ripening comparative co-crystal screening (solid form outcome)
Format: physicochemical
Conditions: Compound 1 + coformer, cycled 25° C./5° C., 10 days; for Slurry ripening result, MTBE: MTBE saturated with coformer; for Slurry ripening result, EtOH: EtOH saturated with coformer; for Slurry ripening result, EtOAc: EtOAc saturated with coformer
Experimental: In certain embodiments, for example, the method may comprise slurry ripening. […] In certain embodiments, the solvent is 1-butanol or toluene.
In certain embodiments, for example, the saturated coformer solution may be prepared by 1) combining the quantity of coformer in a quantity (for example, about 2 mL) of solvent; 2) mixing the combined quantities at a predetermined temperature (for example 23° C.) for a predetermined period of time (for example at least about 16 hours or less than about 16 hours) to form a suspension; and 3) filtering the suspension (for example filtering the suspension through an 0.2 micron PTFE filter if the solvent is an organic solvent or an 0.45 micron filter if the solvent is an organic solvent mixed with water). In certain embodiments, for example, the solvent may be selected from the group consisting of ethyl alcohol, a solution of ethyl acetate and heptane (for example a solution having an ethyl acetate to heptane at ratio of 2:8 v/v), a solution of acetonitrile and water (for example a solution having a acetonitrile to water ratio of 1:9 v/v), and t-butyl methyl ether (MTBE), or a combination of two or more of the foregoing.
A series of comparative crystallization experiments were conducted with 41 potential coformers and 7 solvents by two different methods.

Row | Compound | Slurry ripening result, MTBE | Slurry ripening result, EtOH | Slurry ripening result, EtOAc | also measured
1 | O=C(O)[C@@H](O)c1ccccc1 [L-(+)-Mandelic acid] | PCH |  |  | 
2 | O=c1c(O)c(-c2ccc(O)c(O)c2)oc2cc(O)cc(O)c12 [Quercetin] |  | PCH |  | 
3 | Oc1cccc(O)c1O [Pyrogallol] | PCH |  |  | 
4 | O=C(O)CC(=O)O [Malonic acid] |  |  |  | Slurry ripening result, Toluene (Toluene saturated with coformer): F*
5 | (−)-L-Malic acid |  | PCH | PCH | 
6 | NC(N)=O [Urea] | PCH |  |  | 
7 | O=C(O)[C@H](O)[C@@H](O)C(=O)O [(+)-L-Tartaric acid] |  |  | F* | 
8 | NC(=O)c1ccncc1 [Isonicotinamide] |  | B* |  | 
9 | COC(=O)[C@H](Cc1ccccc1)NC(=O)[C@@H](N)CC(=O)O [Aspartame] (H-Asp-Phe-OMe) |  |  | A + F | 
10 | O=C(O)c1ccc2ccccc2c1O [1-Hydroxy-2-Naphthoic acid] | A* |  | PCH | 
11 | CC1(C(=O)O)CCC(C(=O)O)C1(C)C (stereo not drawn) [(+)-Camphoric acid] | PCH |  |  | 
12 | NC(=O)c1cccnc1 [Nicotinamide] |  | PCH |  | 
